From paper PMC9138505, “Small Molecule 20S Proteasome Enhancer Regulates MYC Protein Stability and Exhibits Antitumor Activity in Multiple Myeloma” (Biomedicines, 2022)

Experiments:
[1] = tested on: RPMI-8226 subcutaneous xenograft; assay: RPMI-8226 xenograft tumor model; conditions: after 42 days; TCH-165 100 mg/kg bid oral; bortezomib 0.375 reduced to 0.09 mg/kg i.v. 3X per week
[2] = tested on: primary human MM cells of newly diagnosed patient; assay: Primary cell viability, CellTiter-Glo, 72 h
From the text: (§1) White blood cells (WBCs) were separated from red blood cells by the Ficoll density gradient. Multiple myeloma cells were then isolated from WBCs using human CD138 affinity magnetic beads (Miltenyi Biotec; cat#130-093-062; Gaithersburg, MD, USA) following the manufacturer’s protocol. Cells were cryopreserved in 10% DMSO in FBS. Revived cells were maintained in an RPMI medium with 10% FBS for 10 days prior to treatment. […] Cells were equilibrated to RT and CellTiter-Glo (Promega; Madison, WI, USA) solution (100 μL) was added and incubated with shaking for 10 min at RT. The assay plate was then allowed to equilibrate for 5 min at RT and luminescent readings were taken on a SpectraMax® M5. Data are presented as a percentage of the vehicle control for each experimental condition, after background subtraction. Error bars represent SD for triplicate wells.

[3] = tested on: primary cells from a BTZ refractory MM patient; assay: Primary cell viability, CellTiter-Glo, 72 h; conditions: Homo sapiens
From the text: as §1

In the case of `CC(C)C[C@H](NC(=O)[C@H](Cc1ccccc1)NC(=O)c1cnccn1)B(O)O` [bortezomib, reference compound], the average tumor volume [1] is reported as 771.41 (±129.35) mm^3, the CC50 [2] is reported as 4 nM and the CC50 [3] is reported as > 1000 nM.
